From paper PMC6694155, “PTPσ inhibitors promote hematopoietic stem cell regeneration” (Nature Communications, 2019) come the findings set out here.

The structures appear in SMILES notation. Values joined by “and” are separate entries in the source; they are usually repeats but may differ in a detail not shown here. Equal entries are not always repeated.

Test [1] has as its target T1, PTPβ (Protein Tyrosine Phosphatase Receptor beta) (Homo sapiens, UniProt P23467).
T1 construct: purchased Eurofins Pharma Discovery Services UK
As to the kind of experiment: PhosphataseProfiler screen: PTPβ. The format is biochemical. As to conditions: replicates. How it is done: (§1) Compound DJ001 was evaluated in a PhosphataseProfiler™ screen at 10 μM and 1 μM (2.7 μg/mL and 0.27 μg/mL) concentrations at Eurofins Pharma Discovery Services UK (Study number UK022-0004033) against a panel of 21 Phosphatases. In each experiment, the respective reference antagonist/agonist was tested directly with DJ001 and the data were compared with historical values determined at Eurofins. DJ001 compound inhibition was calculated as percentage inhibition of the enzymatic activity compared with control.

Test [2] addresses T2, TMDP (Dual Specificity Phosphatase 13) (Homo sapiens, UniProt Q9UII6).
T2 construct: purchased Eurofins Pharma Discovery Services UK
Description: PhosphataseProfiler screen: TMDP. As to conditions: replicates. The format is biochemical. The procedure:
as §1

Test [3] addresses T3, VHR (Dual Specificity Phosphatase 3) (Homo sapiens, UniProt P51452).
T3 construct: purchased Eurofins Pharma Discovery Services UK
Description: PhosphataseProfiler screen: VHR. Conditions: replicates. The format is biochemical. The procedure: as §1

The subject of test [4] is BM cells from irradiated CD45.2+ mice in CD45.1+ recipient mice. As to the kind of experiment: HSC competitive repopulation assay. Format: in vivo, mouse. The procedure: Femurs and tibiae were collected from killed C57BL/6 or Ptprs^−/− mice and flushed with IMDM containing 10% FBS and 1% penicillin–streptomycin for BM cells. PB was collected through sub-mandibular puncture. Cells were filtered through a 40 μM strainer and then treated with ACK lysis buffer (Sigma Aldrich) before antibody staining for flow cytometry. For KSL and CD150^+CD48^−KSL cell analysis, BM cells were stained with allophycocyanin (APC)-and Cy7-conjugated anti-mouse Sca1 (BD Biosciences, #560654, 1:100), phycoerythrin (PE)-conjugated anti-mouse c-kit (BD Biosciences, #553355, 1:100), V450 lineage cocktail (BD Biosciences, 561301, 1:10), Alexa Fluor 488-conjugated anti-mouse CD48 (BioLegend, #103414, 1:100), and Alexa Fluor 647-conjugated anti-mouse CD150 (Biolegend, #115918, 1:100) antibodies. […]
CFC assays (colony-forming unit-granulocyte monocyte), burst-forming unit-erythroid, and CFU-GEMM were performed using MethoCult GF M3434 (Stemcell Technologies)[6]. […] Multilineage donor hematopoietic cell engraftment was measured in the PB by flow cytometry.

In the next test the test system is RAC1-GTP in BM KSL cells. As to the kind of experiment: RAC1-GTP intracellular flow cytometry of BM KSL cells. Format: cell-based, mouse. As to conditions: for Figure 3c: RAC1-GTP in BM KSL cells: individual replicates. Details: Figure 3c: RAC1-GTP in BM KSL cells: unit not given here. How it is done: (§2) Intracellular flow cytometric analysis was performed on irradiated (300 cGy) or non-irradiated, sorted KSL cells after treatment with 1 μg/mL DJ001 or control (equal volumes of DMSO) for 24 h. At 24 h after irradiation, cells were fixed with 4% PFA for 10 min, followed by permeabilization using 0.25% saponin in PBS. Cells were washed again and stained with antibody at the recommended concentrations for 30 min at RT. Intracellular antibodies and phospho-flow antibodies used were as follows: FITC-conjugated anti-BCL-XL (Abcam, #26148, 1:100), active RAC1-GTP antibody (NewEast Biosciences, #26903, 1:100) and anti-PAK1 (phospho S144) + PAK2 (phospho S141) + PAK3 (phospho S154) antibody (Abcam, #40795, 1:100), and FITC-conjugated goat anti-rabbit IgG H&L (Abcam, #97050, 1:200).
(In general: In flow cytometry, cells or beads pass a laser one at a time.)

The next test has as its system p-PAK1 in BM KSL cells. As to the kind of experiment: p-PAK1 phospho-flow cytometry of BM KSL cells. Format: cell-based, mouse. The procedure: as §2
In another test the test system is BM KSL cells. Description: CFC assay after lentiviral shRac1 or shBcl2l1 silencing and 300 cGy. Conditions: for Figure 3i: BFU-E / Figure 3i: CFU-GM / Figure 3i: GEMM: 300 cGy, replicates. The format is cell-based, mouse. How it is done: Rac1 CDS-targeting- and Bcl2l1 CDS-targeting shRNA in lentiviral plasmid (TRCN0000310888 and TRCN0000004685) and control shRNA (SHC216V) were purchased from Sigma Aldrich. […]. Viral particles were collected after 24 h and 48 h. […] Infected cells were collected the next day and irradiated with 300 cGy followed by treatment with or without 1 μg/mL DJ001, prior to CFC assay.
CFC assays (colony-forming unit-granulocyte monocyte), burst-forming unit-erythroid, and CFU-GEMM were performed using MethoCult GF M3434 (Stemcell Technologies)[6]. For all in vitro assays, BM CD34^−KSL cells, KSL cells, and Lin^− cells were cultured in TSF media (IMDM, 10% FBS, 1% pen-strep, 20 ng/mL recombinant mouse TPO, 125 ng/mL recombinant mouse SCF, 50 ng/mL recombinant mouse Flt3 ligand). Recombinant mouse SCF, Flt3 ligand, and TPO were purchased from R&D Systems. For competitive repopulation assays, BM cells were isolated from donor 10–12-week-old female CD45.2^+ mice. Recipient 10-week-old female CD45.1^+ B6.SJL mice were irradiated with 950 cGy TBI using a Cs137 irradiator and donor BM cells were administered via tail vein injection along with a competing dose of 1 × 10^5 non-irradiated host BM cells. Multilineage donor hematopoietic cell engraftment was measured in the PB by flow cytometry.

T1 sequence (P23467 23-1997): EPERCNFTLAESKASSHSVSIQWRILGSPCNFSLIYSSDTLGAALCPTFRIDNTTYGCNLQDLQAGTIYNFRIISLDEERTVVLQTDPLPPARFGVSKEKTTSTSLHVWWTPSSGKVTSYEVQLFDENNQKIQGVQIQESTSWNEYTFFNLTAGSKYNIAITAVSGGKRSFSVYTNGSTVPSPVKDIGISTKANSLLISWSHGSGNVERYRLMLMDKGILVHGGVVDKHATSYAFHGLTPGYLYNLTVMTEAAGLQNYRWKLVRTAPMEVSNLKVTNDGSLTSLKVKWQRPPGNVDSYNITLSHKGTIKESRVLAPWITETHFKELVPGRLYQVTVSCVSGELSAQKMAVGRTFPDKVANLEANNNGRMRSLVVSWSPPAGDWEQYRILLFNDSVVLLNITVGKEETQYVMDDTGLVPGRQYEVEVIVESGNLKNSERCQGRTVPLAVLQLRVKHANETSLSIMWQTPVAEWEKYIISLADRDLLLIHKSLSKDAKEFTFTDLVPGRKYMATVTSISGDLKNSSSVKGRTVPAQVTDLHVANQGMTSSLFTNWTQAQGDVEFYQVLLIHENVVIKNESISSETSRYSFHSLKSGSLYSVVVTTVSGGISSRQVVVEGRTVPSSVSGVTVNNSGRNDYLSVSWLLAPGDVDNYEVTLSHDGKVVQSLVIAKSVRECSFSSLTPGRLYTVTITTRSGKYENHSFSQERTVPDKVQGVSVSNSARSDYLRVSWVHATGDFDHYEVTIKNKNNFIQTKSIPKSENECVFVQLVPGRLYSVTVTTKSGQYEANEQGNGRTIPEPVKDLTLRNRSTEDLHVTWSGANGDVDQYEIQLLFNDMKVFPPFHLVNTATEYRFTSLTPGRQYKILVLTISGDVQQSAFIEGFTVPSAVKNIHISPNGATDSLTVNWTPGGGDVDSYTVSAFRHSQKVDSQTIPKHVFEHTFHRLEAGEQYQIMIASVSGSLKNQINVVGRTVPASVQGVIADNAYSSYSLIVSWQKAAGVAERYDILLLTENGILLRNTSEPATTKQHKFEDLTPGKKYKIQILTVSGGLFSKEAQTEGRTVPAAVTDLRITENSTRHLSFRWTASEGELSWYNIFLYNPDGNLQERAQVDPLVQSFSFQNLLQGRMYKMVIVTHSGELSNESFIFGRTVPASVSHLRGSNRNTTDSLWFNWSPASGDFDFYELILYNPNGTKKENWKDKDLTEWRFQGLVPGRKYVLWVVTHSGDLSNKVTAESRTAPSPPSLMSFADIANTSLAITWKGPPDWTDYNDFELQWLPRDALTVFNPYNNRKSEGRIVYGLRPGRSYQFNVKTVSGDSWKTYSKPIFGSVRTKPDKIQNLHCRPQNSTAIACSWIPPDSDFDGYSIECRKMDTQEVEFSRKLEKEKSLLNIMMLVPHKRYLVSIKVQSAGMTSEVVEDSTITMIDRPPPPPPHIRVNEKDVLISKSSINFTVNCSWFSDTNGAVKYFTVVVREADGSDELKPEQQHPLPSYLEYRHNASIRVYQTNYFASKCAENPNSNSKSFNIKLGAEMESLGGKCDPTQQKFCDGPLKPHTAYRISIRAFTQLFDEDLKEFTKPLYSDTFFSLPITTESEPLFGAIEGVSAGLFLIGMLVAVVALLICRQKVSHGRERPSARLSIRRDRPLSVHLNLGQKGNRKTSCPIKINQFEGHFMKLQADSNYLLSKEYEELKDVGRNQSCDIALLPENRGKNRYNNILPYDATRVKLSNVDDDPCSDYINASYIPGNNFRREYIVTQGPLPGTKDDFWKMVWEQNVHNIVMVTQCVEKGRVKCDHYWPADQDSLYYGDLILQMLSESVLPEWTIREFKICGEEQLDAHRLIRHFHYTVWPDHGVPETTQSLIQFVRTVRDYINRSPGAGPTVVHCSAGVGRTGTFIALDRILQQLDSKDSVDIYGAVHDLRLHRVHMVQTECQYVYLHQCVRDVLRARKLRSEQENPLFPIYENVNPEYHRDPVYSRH
T2 sequence (Q9UII6 whole entry, species assumed): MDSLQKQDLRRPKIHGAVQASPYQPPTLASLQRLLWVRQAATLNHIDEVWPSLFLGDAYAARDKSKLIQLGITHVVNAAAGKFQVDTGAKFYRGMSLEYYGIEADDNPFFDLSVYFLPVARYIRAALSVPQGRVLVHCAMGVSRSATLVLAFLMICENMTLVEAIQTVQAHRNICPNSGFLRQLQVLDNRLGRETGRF
T3 sequence (P51452 whole entry, species assumed): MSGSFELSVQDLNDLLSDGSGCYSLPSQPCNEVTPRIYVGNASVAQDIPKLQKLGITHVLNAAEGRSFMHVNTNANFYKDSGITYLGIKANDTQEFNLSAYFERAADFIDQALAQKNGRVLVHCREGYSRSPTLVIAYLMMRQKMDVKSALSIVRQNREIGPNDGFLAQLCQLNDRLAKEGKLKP

`O=C(/C=C\Nc1cccc([N+](=O)[O-])c1)c1ccccc1` [DJ001, (Z)-3-((3-nitrophenyl)amino)-1-phenylprop-2-en-1-one]: the “Supplementary Figure 1: PTP activity” value is 92 and 79 and 96 in test [1] (2.7 μg/mL DJ001); 98 and 91 and 84 in test [1] (0.27 g/mL DJ001). Further, the “Supplementary Figure 1: TMDP activity” value in test [2] (2.7 μg/mL DJ001) was 101; in test [2] (0.27 g/mL DJ001), 108 and 103 (2×). Also, the “Supplementary Figure 1: VHR activity” value in test [3] (2.7 μg/mL DJ001) was 94 and 84 and 95; in test [3] (0.27 g/mL DJ001), 100 and 101 and 98. Moreover, in test [4] (20 weeks post transplant), the “percentages of donor myeloid cells, B cells and T cells in PB vs control” value is reported as “significantly increased percentages”. Further, the “donor hematopoietic reconstitution over time compared with controls” value in test [4] (donors: 750 cGy, 5 mg/kg DJ001 daily, BM at day +10) is given as “significantly increased donor hematopoietic reconstitution”. In addition, the RAC1-GTP levels result in the test on RAC1-GTP in BM KSL cells (BM KSL cells from Ptprs+/+ mice) is “rapid increase in RAC1-GTP levels”; in the test on RAC1-GTP in BM KSL cells (BM KSL cells from Ptprs−/− mice), “no change in RAC1-GTP levels”. The “Figure 3c: RAC1-GTP in BM KSL cells” value in the test on RAC1-GTP in BM KSL cells (Ptprs+/+ cells) is 42 and 37.6 and 37.8 and 37.4 and 37.3; with RAC1-GTP in BM KSL cells (Ptprs-/- cells) it was 84.6 and 83.8 and 81.9 and 85.5 and 85.6. Also, the “phosphorylation of PAK1” value in the test on p-PAK1 in BM KSL cells (BM KSL cells, 1 μg/mL DJ001) was “increased phosphorylation”. For the same compound, the “Figure 3d: p-PAK1 in BM KSL cells” value in the test on p-PAK1 in BM KSL cells (individual replicates) was 50.24 and 54.07 and 49.55 and 58.02 and 54.95. Moreover, the “DJ001-mediated recovery of hematopoietic progenitor cells with silencing of Rac1 or Bcl2l1” value in the test on BM KSL cells (BM KSL cells, 48 h following 300 cGy) is reported as “blocked DJ001-mediated recovery of hematopoietic progenitor cells”. In addition, the “Figure 3i: BFU-E” value in the test with BM KSL cells (shBcl-xL) is 1; in the test on BM KSL cells (shCtrl), 2 and 3 (4×) and 4 (2×) and 5 (2×); in the test with BM KSL cells (shRac1), 1 (2×) and 0. The “Figure 3i: CFU-GM” value with BM KSL cells (shBcl-xL) was 9 and 11 and 10; in the test on BM KSL cells (shCtrl), 26 (3×) and 30 and 29 (2×) and 20 and 31 and 28; with BM KSL cells (shRac1) it was 12 and 10 (2×). In addition, the “Figure 3i: GEMM” value in the test on BM KSL cells (shBcl-xL) was 2 and 1 (2×); in the test with BM KSL cells (shCtrl), 5 (3×) and 13 and 8 (2×) and 7 and 10 and 9; with BM KSL cells (shRac1), 2 and 0 and 3.
